Consider 4 molecules from publication PMC3928314, “Identification and Characterization of Sebaceous Gland Atrophy-Sparing DGAT1 Inhibitors” (PLoS ONE, 2014).

Data set [1] can be described thus: Measured logD by high-throughput HPLC. It counts as physicochemical. As to conditions: reversed-phase HPLC, Poroshell 120 EC-C18 column; HT HPLC, pH 7.0; read-out: mlogD (measured logD). The protocol: LogD was measured by high-throughput (HT) HPLC at pH 7.0. The chromatographic system consisted of an Agilent 1200 HPLC system composed of a G1379B degasser, G1312B binary pump, G1367C well-plate autosampler, G1316B thermostatted column compartment, G1315C diode-array UV-vis detector, and ChemStation software, all from Agilent Technologies, USA. The separations were carried out on a Poroshell 120 EC-C18, 30 mm×3.0 mm I.D., 2.7 µm, (Agilent Technologies, USA). The mobile phase consisted of phosphate buffered saline at pH 7 (mobile phase A) and acetonitrile (mobile phase B). The column oven temperature was set to 30°C. The HPLC analysis began with an isocratic step of 0.2 minutes at 5% B at 1.5 ml/min, followed by a gradient from 5% to 98% B in 1.0 minute at 1.5 ml/min. A second isocratic step of 0.2 minutes at 98% B with a changing flow rate from 1.5 to 2.0 ml/min was then followed by a gradient from 98 to 5% B in 0.1 minutes with the flow rate changing from 2.0 to 1.5 ml/min. The equilibration time between injections is 0.2 minutes at 5% B. The injection volume is 5 µL and the spectrophotometric detection was set to 215, 238 and 254 nm.
A 10 mM DMSO stock solution of compound was delivered for analysis. A 100 µM standard solution was generated by diluting 10 µL of the 10 mM stock solution with 990 µL of diluent (10% DMSO/10% MeCN/80% MeOH, v/v/v). The chromatographic system was calibrated with a set of standards with published shake-flask logD values. Linear regression was used to determine the calibration line relating the retention time to logD for the calibration standards. This line was then used to determine the HT HPLC logD7.0 value of compound from the measured retention time by the HPLC/DAD analysis of the 100 µM standard solution.

Data set [2] deals with rats. Kind of data set: Longer exposure in rats, skin adverse effects. It counts as in vivo, rat. The settings on record: up to 300 mg/kg for 4 weeks, data not shown.
The nature of data set [3]: Skin compound concentration after 14 days oral dosing. The data set is classed as in vivo, mouse. The settings on record: DIO mice; for Skin (skin concentration): oral 30 mg/kg or dose indicated (Cpd1 3 mg/kg), 14 days, trough, BLQ = below detection; for Kp: male, C57BL/6, mouse, skin/plasma, 14 days oral dosing, read-out: Skin/Plasma Ratio (skin to plasma concentration ratio). The protocol:
(§1) Experiments were performed in male diet induced obese C57BL/6 mice (Taconic Farms, Germantown, NY) that were fed high-fat diet (D12492: 60% kcal from fat; Research Diets) in a 12 hr light/12 hr dark cycle. Animal protocols used in these studies were approved by the Merck Research Laboratories Institutional Animal Care and Use Committee (Rahway, NJ). Mice were acclimated to nonspecific stress for 7 days before the onset of the chronic dosing studies where they were dosed orally with vehicle (0.5% methylcellulose) or compounds at 30 mg/kg, or at doses indicated, for 14 days.
The skin tissue samples from mice were weighted and placed in 48-well plates (or tubes). […] An aliquot of 100 µL homogenized blank skin tissue samples were transferred to 96-well plates designated for standard curve and QCs. […] An aliquot of 100 µL dosed skin tissue homogenates were transferred to the 96-well plate and a 25 µL aliquot of acetonitrile:water 1∶1 was added into each well containing dosed tissue samples to make the volumes of all samples, stds, and QCs equal. Protein precipitation was used for sample extraction by the addition of 500 µL of acetonitrile crash solution, containing IS. Internal standard used was Alprazolam (Sigma Aldrich) at 100 µM in the crash solution. Samples were vortexed for 30 seconds and then centrifuged at 4000 rpm for 5 min. The supernatant was transferred to a separate plate.
A Thermo Scientific-Cohesive LX-2 system consisting of a CTC Analytics autosampler, Flux Instruments AG pumps, and a valve module, controlled by Aria software was used. A Sciex API-4000 mass spectrometer (Toronto, Canada) was the detector using Analyst 1.4.2 software. The aqueous mobile phase (A) was water with 0.1% formic acid and the organic mobile phase (B) was acetonitrile with 0.1% formic acid. A gradient chromatographic profile was used. […] Then over 90 seconds, the chromatic conditions were ramped to 5% A and 95% B. This was held for 25 seconds when the conditions were changed back to original 95% A and 5% B and held for 50 seconds. […] A turbo ionspray interface was used in positive ion mode for detection of analytes. Multiple reaction monitoring (MRM) was used to measure the analyte response. The peak area ratio of analyte to internal standard for nominal concentrations was used to make a linear regression line with a 1/x2 weighting factor. The line's equation was used to determine the concentration in the unknown samples.

For data set [4], the system named is male diet induced obese C57BL/6 mice. Briefly: Skin histology, sebaceous gland atrophy in DIO mice. It counts as in vivo, mouse. The settings on record: for Sebaceous gland atrophy in skin, in words (skin-positive / skin-negative): 14 days of treatment; for Sebaceous gland size (area), Geometric Mean: dorsal skin biopsies, Cpd1 3 mg/kg, Cpd2 and Cpd3 30 mg/kg, n 10; for Sebaceous gland size (area), Geometric Mean / Scoring (histological adverse effect score, sebaceous gland atrophy): 14 days; for Scoring (histological adverse effect score, sebaceous gland atrophy): oral 30 mg/kg or dose indicated (Cpd1 3 mg/kg), dorsal skin. The protocol: as §1
Skin samples from DIO mice treated with DGAT1 inhibitors for 14 days were collected from the dorsal and/or ventral surface and immediately fixed in 10% buffered formalin for 24 hr at room temperature and embedded in paraffin. Paraffin specimens were sectioned at 5 µm and stained with hematoxylin and eosin, and were evaluated blindly with light microscopy. […] One slide/location with at least 50 sebaceous glands was used for scoring purposes. Digital images were captured using a 20× objective and the ScanScope XT slide scanner system (Aperio Technologies, Vista, CA) and managed using Spectrum (Aperio). The size of the sebaceous glands were measured using ImageScope of Aperio system by the method previously described.

A short description of data set [5]: Plasma compound concentration after 14 days oral dosing. The data set is classed as in vivo, mouse. The settings on record: DIO mice, oral 30 mg/kg or dose indicated (Cpd1 3 mg/kg), trough. The protocol:
as §1
Concentrations of compounds in plasma were determined by LC-MS/MS following protein precipitation. To 100 µL of plasma sample, 20 µL of an acetonitrile solution of the internal standard (2,500 ng/ml), was added. This step was followed by protein precipitation with 300 µL of acetonitrile. Samples expected to contain analyte concentrations exceeding the upper limits of the calibration curves were diluted with control plasma. Sample mixtures were vortex-mixed for 15 minutes. After spinning in a centrifuge for 15 minutes at 1,000× g (at 10°C), the supernatants were transferred by a Tomtec Quadra 96 Model 320 (Hamden, CT) to Empore 96 filter plates (Fisher Scientific, Springfield, NJ), and the resulting filtrates collected. These filtrates were dried at 25°C under a stream of nitrogen gas, on a Zymark TurboVap 96 (Hopkinton, MA). The residues were reconstituted with 100 µL of a 8∶2, v/v, mixture of mobile phases A (20 mM aqueous ammonium acetate containing 0.01% formic acid), and B (80∶20, v/v, acetonitrile:methanol), vortex-mixed, spun in a centrifuge at 1,000× g (at 10°C), then analyzed by LC-MS/MS.
The LC-MS/MS system comprised of a Leap Technologies HTS-PAL autosampler (Carrboro, North Carolina), two Perkin Elmer Series 200 Micro Pumps (Norwalk, CT), an in-line pre-column filter, a Type W 6-port Valco switching valve (Vici, Houston, TX), and a Sciex API 365 mass spectrometer (Toronto, Canada). Chromatographic separation of the analytes was achieved by RP-HPLC.
Data were acquired and processed by Sciex Analyst version 1.1 software. Peak area ratios of analyte to internal standard were plotted as a function of the nominal concentrations of the analyte. A line of best fit was generated from the curve points by linear regression with a weighting factor of 1/x2. The equation of this line was then used to calculate the plasma […] in samples.

Data set [6] can be described thus: Unbound fraction (Fu) in plasma by equilibrium dialysis. The data set is classed as in vitro ADME. As to conditions: pH 7.4, mouse plasma, equilibrium dialysis 4 hr 37°C. The protocol: Plasma protein binding was determined by equilibrium dialysis with an incubation period of 4 hr at 37°C. The dialysis membrane (10-12K MWCO, HTDialysis, LLC) was hydrated and the dialysis apparatus (HTDialysis, LLC) assembled according to the manufacturer's directions. A 150 µL aliquot of mouse plasma containing compound (5 µM) was added to one side of the dialysis membrane. A 150 µL aliquot of phosphate buffered saline (pH 7.4) was added to the opposite side. The plate was then sealed and placed in a shaking incubator set to maintain a temperature of 37°C and constant shaking rate of 60 rpm for 4 hr. At the end of the incubation period, 50 µL aliquots of plasma and buffer were removed and analyzed by LC-MS/MS. Percent unbound was determined as the amount of compound in buffer (post incubation) divided by amount of compound in plasma (post incubation) x100.
In general terms: In equilibrium dialysis only unbound substance equilibrates across the membrane.

For data set [7], the target named is T1, mDGAT1 (Mus musculus, UniProt Q9Z2A7).
T1 construct: made in house; host or cells: Pichia (membrane preparations)
T1 sequence (Q9Z2A7 1-498): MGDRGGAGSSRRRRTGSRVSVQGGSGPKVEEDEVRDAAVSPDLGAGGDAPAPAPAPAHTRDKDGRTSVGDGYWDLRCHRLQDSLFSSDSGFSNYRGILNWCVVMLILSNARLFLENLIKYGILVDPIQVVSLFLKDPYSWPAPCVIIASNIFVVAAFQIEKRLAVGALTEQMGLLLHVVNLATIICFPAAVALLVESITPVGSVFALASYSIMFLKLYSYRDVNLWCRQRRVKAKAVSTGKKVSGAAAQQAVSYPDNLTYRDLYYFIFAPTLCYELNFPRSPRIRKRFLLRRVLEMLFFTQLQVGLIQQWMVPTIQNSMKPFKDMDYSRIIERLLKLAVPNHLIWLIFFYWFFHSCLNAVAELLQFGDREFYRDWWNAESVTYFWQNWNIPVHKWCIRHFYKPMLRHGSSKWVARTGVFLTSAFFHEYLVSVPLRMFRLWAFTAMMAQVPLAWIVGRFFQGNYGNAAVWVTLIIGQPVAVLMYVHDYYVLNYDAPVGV
Briefly: DGAT1 enzyme assay. The data set is classed as biochemical. The settings on record: in vitro potency.

The fraction unbound is the share of the substance not bound to proteins or other matrix. A word on the IC50: it is the concentration that inhibits the measured activity by half. A high value points to a need for much substance.

“And” between values parts separate entries of the source, which are not always exact repeats. Identical values can stand only once. “Also recorded” adds a separate entry of the source. Like-named read-outs stand apart in the source and are kept apart here.

On to `Nc1ncnc2c1C(=O)N(c1ccc([C@H]3CC[C@H](CC(=O)O)CC3)cc1)CCO2` [Cpd1], for which the chromatographic logD in data set [1] is 0.35. The “Adverse effects in skin” value in data set [2] is on record as “no adverse effects in skin”. Further, in data set [3], the “Skin (skin concentration)” value was found to be 0.0621 µM and the Kp was found to be 0.32. Also, in data set [4], the “Sebaceous gland atrophy in skin, in words (skin-positive / skin-negative)” value is given as “lack of skin AEs; also recorded: appeared normal; also recorded: Skin-Negative”; the “Sebaceous gland size (area), Geometric Mean” value (“Sebaceous gland size (area)” below) is reported as 1805; the “Scoring (histological adverse effect score, sebaceous gland atrophy)” value is “not remarkable”. Besides, in data set [5], the “Plasma (plasma concentration)” value is reported as 0.194 µM.

As to `CC(C)(C)OC(=O)NC1(C(=O)N[C@@H]2CC(=O)c3ccccc3N(Cc3cc(C(F)(F)F)cc(C(F)(F)F)c3)C2=O)CC1` [Cpd2], the chromatographic logD in data set [1] was found to be 4.04. Besides, the “Skin (skin concentration)” value in data set [3] was 2.16 µM and 1.94 µM and 2.25 µM. The Kp in data set [3] (po) came out at 17.5. In addition, in data set [4], the “Sebaceous gland atrophy in skin, in words (skin-positive / skin-negative)” value was “induce either “minimal to mild” or “moderate to marked” skin sebaceous gland atrophy; also recorded: Skin-Positive”; the “Sebaceous gland size (area)” value is listed as 880; the “Scoring (histological adverse effect score, sebaceous gland atrophy)” value is “moderate to marked”. In data set [5], the “Plasma (plasma concentration)” value is 0.124 µM and 0.106 µM and 0.163 µM. The molecule further returned an unbound share (fraction unbound) at 4 h, 5 µM in data set [6] of 0.01.

`O=C(Nc1ccc([C@H]2CC[C@H](C(=O)O)CC2)cc1F)c1nnc(Nc2ccc(F)c(F)c2)o1` [Cpd3] displayed a concentration for half-maximal inhibition (IC50) in data set [7] of 0.011 µM. Further, the midpoint of inhibition in data set [7] (same values in µM), the IC50, lay at 0.011 µM. For the same molecule, the chromatographic logD in data set [1] worked out at 1.73. In addition, in data set [3], the “Skin (skin concentration)” value amounted to 0.135 µM and the Kp turned out to be 0.098. Besides, in data set [4], the “Sebaceous gland atrophy in skin, in words (skin-positive / skin-negative)” value is reported as “induce either “minimal to mild” or “moderate to marked” skin sebaceous gland atrophy”; the “Sebaceous gland size (area)” value is on record as 1562; the “Scoring (histological adverse effect score, sebaceous gland atrophy)” value is “minimal to mild”. In data set [5], the “Plasma (plasma concentration)” value worked out at 1.38 µM. In data set [6], this molecule gave a free fraction (fraction unbound) at 4 h, 5 µM of 0.063.

For `CC(C)(O)C[C@H]1CC[C@H](c2ccc(N3CCOc4ncnc(N)c4C3=O)cc2)CC1` [Cpd22], the chromatographic logD in data set [1] is 2.15. The “Skin (skin concentration)” value in data set [3] is given as “BLQ”. Also, in data set [4], the “Sebaceous gland atrophy in skin, in words (skin-positive / skin-negative)” value is on record as “induce either “minimal to mild” or “moderate to marked” skin sebaceous gland atrophy” and the “Scoring (histological adverse effect score, sebaceous gland atrophy)” value is “moderate to marked”. The “Plasma (plasma concentration)” value in data set [5] stood at 51.4 µM. In data set [6], this molecule had a free fraction (fraction unbound) at 4 h, 5 µM of 0.112.
